From PMC11854949, “Discovery of Novel Pyridin-2-yl Urea Inhibitors Targeting ASK1 Kinase and Its Binding Mode by Absolute Protein–Ligand Binding Free Energy Calculations” (International Journal of Molecular Sciences, 2025)

Target: T1, recombinant human ASK1 protein (catalytic domain, residues 659–951) (Homo sapiens, UniProt Q99683)
T1 construct: The catalytic domain of ASK1 (encoding residues 659–951) was modified to include an N-terminal 6XHis tag; 6XHis (N); made in house; host or cells: E. coli Rosetta2 (DE3)
T1 sequence (Q99683 659-951): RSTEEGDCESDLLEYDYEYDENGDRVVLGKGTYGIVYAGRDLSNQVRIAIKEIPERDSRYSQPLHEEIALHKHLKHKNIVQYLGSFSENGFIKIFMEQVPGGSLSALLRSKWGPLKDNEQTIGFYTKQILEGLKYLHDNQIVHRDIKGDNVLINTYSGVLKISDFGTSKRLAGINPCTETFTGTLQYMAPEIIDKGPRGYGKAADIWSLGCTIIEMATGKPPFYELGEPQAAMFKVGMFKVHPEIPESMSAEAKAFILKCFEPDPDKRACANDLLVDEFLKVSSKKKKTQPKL
Assay: ASK1 enzyme inhibition assay (ADP-Glo)
Type: biochemical
Conditions: for ΔGexp: estimated from IC50 using ΔG = RTln(IC50), 298 K; for IC50: mean ± SEM, n = 3 experiments, 25 μM ATP, 0.1 μg/μL MBP, ADP-Glo
Protocol: The recombinant human ASK1 protein was expressed in E. coli Rosetta2 (DE3) in LB medium, containing 100 µg/mL ampicillin and 34 µg/mL chloramphenicol. A total of 2 mL overnight culture was diluted 100-fold into 200 mL LB and grown at 37 °C with shaking at 200 rpm until the OD600 reached 0.8. Subsequently, 0.5 mM IPTG was added, and protein expression was induced overnight at 20 °C.
The IC50 value for each inhibitor was determined using the ADP-Glo™ protocol. Inhibitors were prepared as a series of 1:1 serial dilutions (final concentration of 10 μM) in 40 mM HEPES buffer (pH 7.5) containing 20 mM MgCl2, 0.1 mg/mL BSA, 50 μM DTT and 5% DMSO.
The reaction was terminated by adding 5 μL of ADP-Glo reagent and incubated at room temperature for 40 min. Then, 10 μL of kinase detection reagent was added, and the mixture was incubated for an additional 30 min. Luminescence was measured using a VICTOR Nivo microplate reader (PerkinElmer, Waltham, MA, USA), and the concentration–response curve and half-maximal inhibitory concentration (IC50) values were obtained by fitting the data using GraphPad Prism (v.9.0) software.

| SMILES | ΔGexp [kcal/mol] | IC50 [nM] |
| --- | --- | --- |
| CC(C)n1cnnc1-c1cccc(NC(=O)N2CCCC2)n1 [Compound 1] | -7.41 ± 0.01 | 3630 ± 72.2 |
| COc1ccc2c(c1)N(C(=O)Nc1cccc(-c3nncn3C(C)C)n1)CC2 [Compound 2] | -12.02 ± 0.11 | 1.55 ± 0.27 |
| CC(C)n1cnnc1-c1cccc(NC(=O)N2CCc3ccc(OC(F)(F)F)cc32)n1 [Compound 3] | -8.21 ± 0.01 | 954 ± 21.5 |
| COc1ccc2c(c1)CCN2C(=O)Nc1cccc(-c2nncn2C(C)C)n1 [Compound 4] | -10.01 ± 0.07 | 45.3 ± 4.82 |
| CC(C)n1cnnc1-c1cccc(NC(=O)N2CCc3cc(C(F)(F)F)ccc32)n1 [Compound 5] | -8.85 ± 0.02 | 319 ± 10.9 |
| CC(C)n1cnnc1-c1cccc(NC(=O)N2CCCc3ccccc32)n1 [Compound 6] | -11.64 ± 0.06 | 2.92 ± 0.28 |
| CC(C)n1cnnc1-c1cccc(NC(=O)N2CCc3ccccc3C2)n1 [Compound 7] | -7.21 ± 0.06 | 5110 ± 507 |
